# Measurements from US9040542B2, “Solid forms of gyrase inhibitor (R)-1-ethyl-3-[6-fluoro-5-[2-(1-hydroxy-1-methyl-ethyl)pryimidin-5-yl]-7-(tetrahydrofuran-2-yl)-1H-benzimidazol-2-yl]urea” (priority 2011, dated 2015).
# Several values for one entry are separate records, joined by “and”; a condition that tells them apart may be missing. Equal values may be shown once.
# What was measured:
# Peptostreptococcus spp. = assay: MIC90 panel, Protocol #3 agar dilution; type: cell-based; settings: 11 isolates
# Proteus mirabilis = assay: MIC90 panel, Protocol 2 microdilution broth; type: cell-based; settings: 12 isolates
# Excerpt: (§1) The specific protocols used were as follows:
# (§2) Drug dilutions, inoculation, MIC determination: • 1.
# Moraxella catarrhalis = assay: MIC90 panel, Protocol 2 microdilution broth; type: cell-based; settings: 26 isolates
# Excerpt: as §1, §2
# Haemophilus influenzae = assay: MIC90 panel, Protocol 2 microdilution broth; type: cell-based; settings: 55 isolates
# Excerpt: as §1, §2
# Pseudomonas aeruginosa = assay: MIC90 panel, Protocol 2 microdilution broth; type: cell-based; settings: 12 isolates
# Excerpt: as §1, §2
# Escherichia coli = assay: MIC90 panel, Protocol 2 microdilution broth; type: cell-based; settings: 12 isolates
# Excerpt: as §1, §2
# Acinetobacter baumannii = assay: MIC90 panel, Protocol 2 microdilution broth; type: cell-based; settings: 12 isolates
# Excerpt: as §1, §2
# Klebsiella pneumoniae = assay: MIC90 panel, Protocol 2 microdilution broth; type: cell-based; settings: 12 isolates
# Excerpt: as §1, §2
# Enterobacter cloacae = assay: MIC90 panel, Protocol 2 microdilution broth; type: cell-based; settings: 12 isolates
# Excerpt: as §1, §2
# M. abscessus MC 5605 = assay: MIC, Protocol #4 Mycobacterium species; type: cell-based
# [1] = system: Staphylococcus aureus ATCC 29213; assay: MIC, Protocol #1 microdilution broth; type: cell-based
# M. abscessus MC 5908 = assay: MIC, Protocol #4 Mycobacterium species; type: cell-based; settings: in µg/mL
# [2] = system: β-haemolytic streptococci (Groups A, B, C and G); assay: MIC90 panel, Protocol #1 microdilution broth; type: cell-based; settings: 28 isolates
# Prevotella spp. = assay: MIC90 panel, Protocol #3 agar dilution; type: cell-based; settings: 13 isolates
# Fusobacterium spp. = assay: MIC90 panel, Protocol #3 agar dilution; type: cell-based; settings: 16 isolates
# [3] = system: Clostridium difficile ATCC BAA-1382; assay: MIC, Protocol #3 agar dilution; type: cell-based
# [4] = system: Moraxella catarrhalis ATCC 25238; assay: MIC, Protocol 2 microdilution broth, Gram negatives; parameters: unit not given beside the values
# Escherichia coli CHE30 = assay: as above; type: cell-based
# Excerpt: as §1, §2
# [5] = system: Pseudomonas aeruginosa PAO750; assay: as above; type: cell-based
# Excerpt: as §1, §2
# [6] = system: Bacillus cereus ATCC 10987; assay: MIC, Protocol #1 microdilution broth; type: cell-based
# Enterococcus faecium = assay: MIC90 panel, Protocol #1 microdilution broth; type: cell-based; settings: 33 isolates
# M. abscessus BB4 = assay: MIC, Protocol #4 Mycobacterium species; type: cell-based
# M. abscessus MC 5812 = assay: MIC, Protocol #4 Mycobacterium species; type: cell-based
# [7] = system: M. tuberculosis H37Rv ATCC 25618; assay: MIC, Protocol #4 Mycobacterium species; type: cell-based
# M. abscessus MC 5931 = assay: MIC, Protocol #4 Mycobacterium species; type: cell-based
# M. abscessus BB10 = assay: MIC, Protocol #4 Mycobacterium species; type: cell-based
# M. abscessus MC 6111 = assay: MIC, Protocol #4 Mycobacterium species; type: cell-based
# M. abscessus MC 6005 = assay: MIC, Protocol #4 Mycobacterium species; type: cell-based
# M. abscessus MC 5960 = assay: MIC, Protocol #4 Mycobacterium species; type: cell-based
# [8] = system: Moraxella catarrhalis ATCC 49143; assay: MIC, Protocol 2 microdilution broth, Gram negatives; parameters: unit not given beside the values
# M. abscessus MC 5922 = assay: MIC, Protocol #4 Mycobacterium species; type: cell-based
# M. abscessus LT 949 = assay: MIC, Protocol #4 Mycobacterium species; type: cell-based
# M. abscessus BB3 = assay: MIC, Protocol #4 Mycobacterium species; type: cell-based
# Mycobacterium avium 103 = assay: MIC, Protocol #4 Mycobacterium species; type: cell-based
# Streptococcus pneumoniae = assay: MIC90 panel, Protocol #1 microdilution broth; type: cell-based; settings: 67 isolates
# [9] = system: Bacillus subtilis ATCC 6638; assay: MIC, Protocol #1 microdilution broth; type: cell-based
# [10] = system: Staphlococcus epidermidis; assay: MIC90 panel, Protocol #1 microdilution broth; type: cell-based, Staphylococcus epidermidis; settings: 35 isolates
# M. abscessus BB5 = assay: MIC, Protocol #4 Mycobacterium species; type: cell-based
# M. abscessus MC 6025 = assay: MIC, Protocol #4 Mycobacterium species; type: cell-based
smiles,measurement,setting,value
"CCNC(=O)Nc1nc2cc(-c3cnc(C(C)(C)O)nc3)c(F)c([C@H]3CCCO3)c2[nH]1 [Compound 24, 1-ethyl-3-[6-fluoro-5-[2-(1-hydroxy-1-methyl-ethyl)pyrimidin-5-yl]-7-[(2R)-tetrahydrofuran-2-yl]-1H-benzimidazol-2-yl]urea]",MIC90,Peptostreptococcus spp.,> 16 µg/mL
same,MIC90,Proteus mirabilis,> 8 µg/mL
same,MIC90,Moraxella catarrhalis,0.03 µg/mL
same,MIC Range,Moraxella catarrhalis,≦0.004-0.03 μg/ml
same,MIC90,Haemophilus influenzae,1 µg/mL
same,MIC Range,Haemophilus influenzae,0.06 to 2 µg/mL
same,MIC90,Pseudomonas aeruginosa,> 8 µg/mL
same,MIC90,Escherichia coli,> 8 µg/mL
same,MIC90,Acinetobacter baumannii,> 8 µg/mL
same,MIC90,Klebsiella pneumoniae,> 8 µg/mL
same,MIC90,Enterobacter cloacae,> 8 µg/mL
same,MIC,M. abscessus MC 5605,1.5 µg/mL
same,MIC,[1]; Staphylococcus aureus ATCC 29213,0.021 µg/mL
same,MIC,[1]; Staphylococcus aureus ATCC 29213 with Human Serum,0.15 µg/mL
same,MIC,[1]; Staphylococcus aureus ATCC 29213 with Mouse Serum,0.5 µg/mL
same,MIC,[1]; Staphylococcus aureus ATCC 29213 with Rat Serum,0.18 µg/mL
same,MIC,M. abscessus MC 5908,1 and 1.5
same,MIC90,[2],0.12 µg/mL
same,MIC Range,[2],0.015 to 0.12 µg/mL
same,MIC90,Prevotella spp.,16 µg/mL
same,MIC Range,Prevotella spp.,0.06 to 16 µg/mL
same,MIC90,Fusobacterium spp.,> 16 µg/mL
same,MIC,[3],0.38 µg/mL
same,MIC,[4],≦0.016
same,MIC,Escherichia coli CHE30,8 µg/mL
same,MIC,[5],0.25 µg/mL
same,MIC,[6],0.031 µg/mL
same,MIC90,Enterococcus faecium,0.12 µg/mL
same,MIC Range,Enterococcus faecium,0.003 to 0.25 µg/mL
same,MIC,M. abscessus BB4,2 µg/mL
same,MIC,M. abscessus MC 5812,1 µg/mL
same,MIC,[7],0.015 µg/mL
same,MIC,M. abscessus MC 5931,0.5 µg/mL
same,MIC,M. abscessus BB10,0.015 µg/mL
same,MIC,M. abscessus MC 6111,0.5 µg/mL
same,MIC,M. abscessus MC 6005,1 µg/mL
same,MIC,M. abscessus MC 5960,0.5 µg/mL
same,MIC,[8],≦0.016
same,MIC,M. abscessus MC 5922,0.25 µg/mL
same,MIC,M. abscessus LT 949,1 µg/mL
same,MIC,M. abscessus BB3,0.5 µg/mL
same,MIC,Mycobacterium avium 103,0.18 µg/mL
same,MIC90,Streptococcus pneumoniae,0.015 µg/mL
same,MIC Range,Streptococcus pneumoniae,0.008 to 0.03 µg/mL
same,MIC,[9],2 µg/mL
same,MIC Range,[10],0.008 to 0.03 µg/mL
same,MIC90,[10]; Staphylococcus epidermidis,0.03 µg/mL
same,MIC,M. abscessus BB5,0.5 µg/mL
same,MIC,M. abscessus MC 6025,0.75 µg/mL
